According to patent publication US20260325485A1, “COMPOSITIONS AND METHODS FOR TREATING PANCREATITIS” (The United States Government as represented by the …, priority 2022, published 2026):

Tests used:
pancreas = test: Drug treatment of Gnptab−/− mice: pancreatic total cholesterol; type: in vivo, mouse
Method: 12-week-old Gnptab−/− mice were subjected to daily i.p. injections of 20 mg/kg simvastatin or the same dose of T0901317 for 4 or 21 days.
(§1) Total cholesterol content was measured with Cholesterol Assay kit per manufacturer's instructions. Samples of mouse pancreas and liver, cell pellet homogenates, subcellular fractions, isolated mitochondria, and serum were diluted in the reaction buffer containing cholesterol probe and incubated at 37° C. for 1 h in the dark. To measure total cholesterol, the samples were subjected to digestion with cholesterol esterase. To measure non-esterified cholesterol, the esterase was omitted from the assay.

[1] = test system: cerulein pancreatitis (CER-AP); test: Drug treatment of cerulein pancreatitis (CER-AP) in WT mice; type: in vivo, mouse
Method: (§2) FIGS. 10A-10N show deranged cholesterol metabolism causes acinar cell damage, while its normalization ameliorates experimental pancreatitis. (A-D) Cholesterol content and trypsin activity were measured (per mg protein) in WT mouse acinar cells incubated for 1 hour without and with methyl-β-cyclodextrin (MCD; 10 mM) or cholesterol-loaded MCD (MCD-Chol; 200 μg/mL), in the presence or absence of 100 nM CCK. Values are expressed relative to those in cells without MCD/MCD-Chol. (E-J) WT mice received daily i.p. injections of the LXR agonist T0901317 (T09), simvastatin (Sim; 20 mg/kg each), or vehicle. On day 4, mice were subjected to CER-AP and pancreata collected for analyses (see also FIG. 20). Cholesterol content (E), trypsin activity (F), and pancreas histopathology (H&E staining; G) were measured. (H, I, L, and N) IB analysis of markers/mediators of autophagy (LC3, p62), ER stress (CHOP, GRP-78), and mitophagy (Parkin). Ub, ubiquitylated proteins. (J) Mitochondrial fragmentation was assessed by immunostaining for Tom20, as detailed in FIG. 7G. (K and L) Mouse acinar cells were treated for 16 hours with LDL (30 μg/mL) or the combination of LDL and 10 μM U18666A. (M and N) Mice received injections of U18666A as detailed in FIG. 9B. Pancreas histopathology (H&E staining; M) and levels of autophagy markers/mediators (N) were measured. Each symbol in A-F and I represents an individual mouse or cell preparation. Values are mean±SEM from 3 to 7 mice or cell preparations per condition. ^§ P<0.05, ^§§ P<0.01 vs. control cells (without MCD/MCD-Chol). ***P<0.001 vs. saline-treated mice. ^#P<0.05, ^##P<0.01, ^###P<0.001 vs. CER-AP alone (no inhibitors). Significance was determined by 2-tailed Student's t test (A-D) or 1-way ANOVA followed by Tukey's multiple comparison test (E, F, and I). Scale bars: 10 μm.
FIGS. 20A-20C show simvastatin improves cerulein pancreatitis. Mice received daily i.p. injections of simvastatin (Sim; 20 mg/kg) or vehicle (see FIG. 10), and on day 4 were subjected to cerulein pancreatitis (CER-AP). (A) Pancreas histopathology (H&E staining; scale: 10 μm). (B) IB analysis of markers/mediators of autophagy (LC3, p62), ER stress (CHOP), and the MLN64/STARD3 protein mediating cholesterol transfer from LE/Ly to mitochondria. Each IB lane represents an individual mouse; ERK1/2 is the loading control. […] Ub, ubiquitylated proteins. (C) Pancreatitis responses. Values are mean±SEM from 7-13 mice for each condition. ***p<0.001 vs saline control. ^###p<0.001 vs CER-AP alone (no simvastatin). Significance was determined by 1-way ANOVA followed by Tukey's multiple comparisons test.
FIGS. 25A-25C show reducing cholesterol overload greatly ameliorates experimental pancreatitis. CER-AP responses were measured in (A) AclyAac or (C) WT mice treated with simvastatin or bempedoic acid (BemA). (B) Acinar cells were transfected with ACLA (or mock) siRNA and subjected to ex-vivo CCK-AP. Each symbol represents an individual mouse or cell preparation. Values are mean±SE. **p<0.01, ***p<0.001 vs saline treated control mice (or mock transfection); #p<0.05, ##p<0.01, ###p<0.001 vs CER/CCK-AP in control mice (i.e. without inhibitors) or cells.
Cerulein-induced (CER-AP) and L-arginine induced (Arg-AP) acute pancreatitis models were performed in 12-week-old C57BL/6 mice that received 7 hourly i.p. injections of 50 μg/kg cerulein or 3 hourly i.p. injections of 3.3 g/kg Arg; controls received physiologic saline injections. Mice were euthanized for analyses 7 hours after the first cerulein or 24 hours after the first Arg injection. Choline deficient, ethionine-supplemented (CDE) pancreatitis was induced in young (~5-weeks old) female mice fed either CDE or control diet. Mice were euthanized 72 hours after the diet initiation. These models have been described in detail (1-7).
12-week-old WT mice were subjected for 4 consecutive days to daily i.p. injections of 20 mg/kg simvastatin (8,9) or 20 mg/kg T0901317 (10); or 10 mg/kg U18666A for 15 days (11). […]

NPC1 [2] = target: T1, NPC1 (Mus musculus, UniProt O35604); test: Effects of NPC1 inhibitor U18666A on WT mouse pancreas; type: in vivo; conditions: 15 days
T1 sequence (O35604 23-1277): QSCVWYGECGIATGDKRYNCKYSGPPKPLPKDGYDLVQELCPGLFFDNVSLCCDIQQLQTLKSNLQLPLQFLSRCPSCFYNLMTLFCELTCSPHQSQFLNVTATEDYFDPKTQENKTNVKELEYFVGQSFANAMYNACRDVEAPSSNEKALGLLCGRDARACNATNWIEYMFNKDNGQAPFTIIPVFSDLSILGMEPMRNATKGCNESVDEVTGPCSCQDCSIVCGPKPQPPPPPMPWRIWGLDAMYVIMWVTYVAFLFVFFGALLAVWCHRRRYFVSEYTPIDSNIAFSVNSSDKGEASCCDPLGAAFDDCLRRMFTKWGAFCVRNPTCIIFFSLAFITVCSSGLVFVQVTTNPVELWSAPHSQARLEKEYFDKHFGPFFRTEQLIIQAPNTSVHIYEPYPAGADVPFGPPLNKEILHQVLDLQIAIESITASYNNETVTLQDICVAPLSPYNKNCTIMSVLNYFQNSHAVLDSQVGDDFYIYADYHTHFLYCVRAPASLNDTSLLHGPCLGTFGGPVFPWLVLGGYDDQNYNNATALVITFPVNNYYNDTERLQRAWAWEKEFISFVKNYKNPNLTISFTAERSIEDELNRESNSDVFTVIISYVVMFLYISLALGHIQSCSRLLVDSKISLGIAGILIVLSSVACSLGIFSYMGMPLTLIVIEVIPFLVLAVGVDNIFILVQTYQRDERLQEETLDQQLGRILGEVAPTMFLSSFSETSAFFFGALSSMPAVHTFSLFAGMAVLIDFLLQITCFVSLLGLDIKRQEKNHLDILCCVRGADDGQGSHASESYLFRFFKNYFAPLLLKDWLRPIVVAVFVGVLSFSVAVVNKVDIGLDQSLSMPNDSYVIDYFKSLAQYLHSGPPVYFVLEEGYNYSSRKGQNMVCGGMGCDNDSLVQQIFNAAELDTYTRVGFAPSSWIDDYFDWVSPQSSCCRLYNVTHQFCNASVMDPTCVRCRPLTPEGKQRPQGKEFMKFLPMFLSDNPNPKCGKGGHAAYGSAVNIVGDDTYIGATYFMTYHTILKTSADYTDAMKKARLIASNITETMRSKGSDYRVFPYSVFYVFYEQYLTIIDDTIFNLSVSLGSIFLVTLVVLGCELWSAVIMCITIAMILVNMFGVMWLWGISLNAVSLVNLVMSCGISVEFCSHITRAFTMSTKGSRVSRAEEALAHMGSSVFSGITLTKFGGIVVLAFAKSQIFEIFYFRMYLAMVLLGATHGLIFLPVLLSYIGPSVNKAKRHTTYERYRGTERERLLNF
Method: FIGS. 9A-9E show cerulein pancreatitis decreases pancreatic levels of GNPTAB and mediators of cholesterol trafficking through LE/Ly. (A, D, and E) IB analysis of the indicated proteins in pancreas of WT mice subjected to CER-AP and in Gnptab^−/− mice. NS, nonspecific band. (B and C) Cholesterol content was measured in pancreas of (B) WT mice that received daily i.p. injections of the NPC1 inhibitor U18666A (10 mg/kg) or vehicle for 15 days and (C) Lamp2^−/− mice. Each symbol in B, C, and E represents an individual mouse. Values are mean±SEM from 3 to 5 mice per condition. ***P<0.001 vs. the same parameter in WT control/untreated or saline-treated mice. Significance was determined by 2-tailed Student's t test (B and C) or 1-way ANOVA followed by Tukey's multiple comparison test (E).
as §2
viii. In Vivo Treatments of Mice
12-week-old WT mice were subjected for 4 consecutive days to daily i.p. injections of 20 mg/kg simvastatin (8,9) or 20 mg/kg T0901317 (10); or 10 mg/kg U18666A for 15 days (11). Control mice received vehicle injections. Some of the simvastatin- and T0901317-treated mice were subjected to CER-AP on day 4, as indicated in corresponding figures.
as §1
Pancreatitis responses were measured as previously described (1-7). Serum amylase and lipase were measured in a Hitachi 707 analyzer. Acinar cell vacuolization and necrosis were quantified on H&E stained pancreatic tissue sections; at least 1000 acinar cells/mouse were analyzed in several high-power fields. ATP was measured in tissue homogenates using bioluminescence assay (3-5).

NPC1 [3] = target: T1, NPC1; test: Effects of U18666A with LDL on WT acinar cells; type: cell-based; conditions: LDL 30 μg/mL + 10 μM U18666A, 16 hours
Method: as §2
To examine the effect of disrupted cholesterol turnover, WT acinar cells were incubated with LDL-cholesterol in the presence and absence of the NPC1 inhibitor U18666A. U18666A caused cholesterol accumulation in LE/Ly (filipin staining; FIG. 10K), resulting in impaired autophagy (manifested by concomitant accumulation of LC3-II and ubiquitylated proteins) and increases in CHOP and Parkin (FIG. 10L).
Immunoblots were developed using enhanced chemiluminescence detection kit (Pierce), and band intensities were quantified by densitometry using FluorChem HD2 imaging system (Alpha Innotech/ProteinSimple).
Staining for neutral lipids and free cholesterol was performed by incubation of fixed-frozen tissue sections or fixed cells with, respectively, 2 μg/ml BODIPY493/503 for 45 min or 100 µg/ml filipin for 2 h at room temperature. For double labeling, BODIPY493/503 or filipin were applied after fixed-frozen tissue or cell sections incubated with primary and secondary antibodies.

[4] = CER-AP, T0901317 or simvastatin 20 mg/kg i.p. daily

Q: What does the source list for `O=S(=O)(c1ccccc1)N(CC(F)(F)F)c1ccc(C(O)(C(F)(F)F)C(F)(F)F)cc1` [T0901317]?
A: total cholesterol content in pancreas, Gnptab−/− mice (pancreas; 20 mg/kg i.p. daily for 4 or 21 days): Neither treatment changed; pancreatic total cholesterol, Gnptab−/− mice (pancreas; even for 3 weeks): failed to decrease; CER-induced increase in MLN64 ([1]; CER-AP, 20 mg/kg i.p. daily): abrogated; accumulation of LC3-II ([1]; CER-AP, 20 mg/kg i.p. daily): reduced; accumulation of p62 ([1]; CER-AP, 20 mg/kg i.p. daily): reduced; accumulation of ubiquitylated proteins ([1]; CER-AP, 20 mg/kg i.p. daily): reduced; mitochondrial fragmentation (Tom20 IF) ([1]; CER-AP, 20 mg/kg i.p. daily): normalized; CHOP levels ([1]; CER-AP, 20 mg/kg i.p. daily, ER stress): decreased; pancreatitis-induced increase in total cholesterol [1, 4]: eliminated; pancreatitis-induced increase in trypsin activity [1, 4]: eliminated; pancreas histopathology in CER-AP ([1]; H&E, 20 mg/kg i.p. daily): improved; pathologic responses of experimental pancreatitis (impaired autophagy, ER stress and others) ([1]; discussion statement): reduced; experimental pancreatitis in WT mouse and ex vivo models ([1]; overall result): ameliorated

Q: Which results are given for `CCN(CC)CCO[C@H]1CC[C@@]2(C)C(=CC[C@@H]3[C@@H]2CC[C@]2(C)C(=O)CC[C@@H]32)C1` [U18666A, 3-beta-[2-(diethylamino)ethoxy] androst-5-en-17-one]?
A: cholesterol content in WT mouse pancreas, U18666A (NPC1 [2]; 10 mg/kg daily i.p.): elevated; LC3-II in mouse pancreas (NPC1 [2]; 10 mg/kg i.p. daily): accumulation; acinar cell vacuolization, mice (NPC1 [2]; 10 mg/kg i.p. daily): increased; inflammation, mouse pancreas (NPC1 [2]; 10 mg/kg i.p. daily): inflammation; p62 in mouse pancreas (NPC1 [2]; 10 mg/kg i.p. daily): accumulation; ubiquitylated proteins in mouse pancreas (NPC1 [2]; 10 mg/kg i.p. daily): accumulation; necrosis, mouse pancreas (NPC1 [2]; 10 mg/kg i.p. daily, up to ~): ≤ 20%; CHOP, acinar cells (NPC1 [3]): increases; LC3-II (impaired autophagy), acinar cells (NPC1 [3]): accumulation; Parkin, acinar cells (NPC1 [3]): increases; cholesterol in LE/Ly (filipin staining) (NPC1 [3]): accumulation; ubiquitylated proteins (impaired autophagy), acinar cells (NPC1 [3]): accumulation
